In article PMC2649369 (The Journal of neuroscience : the official journal of the …, 2007):

Key:
[1] = system: α1β2 157-3,5-F2-Phe GABAA receptor; assay: GABA concentration-response, voltage-clamp in oocytes, β2 157-3,5-F2-Phe; type: cell-based, human
[2] = system: α1β2 157-3,4,5-F3-Phe GABAA receptor; assay: GABA concentration-response, voltage-clamp in oocytes, β2 157-3,4,5-F3-Phe; type: cell-based, human
[3] = system: α1β2 205-3,4,5-F3-Phe GABAA receptor; assay: GABA concentration-response, voltage-clamp in oocytes, β2 205-3,4,5-F3-Phe; type: cell-based, human
[4] = system: α1β2 205-4-F-Phe GABAA receptor; assay: GABA concentration-response, voltage-clamp in oocytes, β2 205-4-F-Phe; type: cell-based, human
[5] = system: α1β2 205-3,5-F2-Phe GABAA receptor; assay: GABA concentration-response, voltage-clamp in oocytes, β2 205-3,5-F2-Phe; type: cell-based, human
[6] = system: α1 65-3,4,5-F3-Phe β2 GABAA receptor; assay: GABA concentration-response, voltage-clamp in oocytes, α1 65-3,4,5-F3-Phe; type: cell-based, human
[7] = system: α1β2 157-4-Me-Phe GABAA receptor; assay: GABA concentration-response, voltage-clamp in oocytes, β2 157-4-Me-Phe; type: cell-based, human
[8] = system: α1β2 97-3,4,5-F3-Phe GABAA receptor; assay: GABA concentration-response, voltage-clamp in oocytes, β2 97-3,4,5-F3-Phe; type: cell-based, human
[9] = system: α1β2 97-3,5-F2-Phe GABAA receptor; assay: GABA concentration-response, voltage-clamp in oocytes, β2 97-3,5-F2-Phe; type: cell-based, human
[10] = system: GABAA receptors with phenylalanine mutations at β2Tyr157 and β2Tyr205; conditions: phenylalanine mutants vs unmutated; ref Amin and Weiss, 1993; cited from earlier work
[11] = biological target: GABAA receptor α1Phe64 (α1Phe65 by human numbering) to Leu mutant; conditions: cited from earlier work

In the case of NCCCC(=O)O [GABA], the “nH (Hill coefficient)” value [1] is reported as 2.0, the “nH (Hill coefficient)” value [2] is reported as 1.7 and the “nH (Hill coefficient)” value [3] is reported as 2.5. For the same compound, the “nH (Hill coefficient)” value [4] was 1.9, the “nH (Hill coefficient)” value [5] was 1.9 and the “nH (Hill coefficient)” value [6] was 1.5. For the same compound, the “nH (Hill coefficient)” value [7] was 0.8, the “nH (Hill coefficient)” value [8] was 1.9 and the “nH (Hill coefficient)” value [9] was 1.1.
In the case of CCCC(C)C1(CC)C(=O)NC(=O)NC1=O (centres unmarked) [pentobarbital], the “functional response on activation of the receptors” value [10] is given as “no change in functional response”.
In the case of CN1CCc2cc3c(cc2[C@H]1[C@@H]1OC(=O)c2c1ccc1c2OCO1)OCO3 [bicuculline], the “change of IC50 on mutation” value [11] is listed as “increasing by similar amounts”.
